Assay results: paper PMC10001324, “Differential Effects of Nonsteroidal Anti-Inflammatory Drugs in an In Vitro Model of Human Leaky Gut” (Cells, 2023)
≈ marks a conversion by molar mass, not a printed value. Where two headings read alike, the source gives them in different places.

Assays:
[1] = system: COX; conditions: cited from earlier work
[2] = system: NFkB; experiment: NFkB translocation in LPS-activated RAW 264.7 macrophages; format: cell-based, murine; conditions: 1 mM for 24 h
Experimental: The murine macrophage cell line RAW 264.7 (ATCC TIB-71) was purchased from ATCC, and cells were cultured as indicated by the manufacturer. For the experiment, cells were seeded 10,000/cm^2 for 24 h, starved for 4 h (w/o serum), and activated with lipopolysaccharides (LPS 10 ng/mL for 24 h; Sigma Aldrich, St. Louis, MO, USA). […] RAW 264.7 cells were seeded at 10,000 cells/cm^2 and activated with LPS. […] For both Caco-2 and RAW 264.7 cells, the procedure of extraction of different components was performed as previously reported. The protein fraction extracts were separated on a 10% SDS–polyacrylamide gel and electroblotted onto PVDF. Nonspecific binding sites were blocked by EBB for 5 min. Membranes were then incubated overnight at 4 °C with anti-NFκB and anti-PPARγ. As secondary antibodies, peroxidase-conjugated anti-rabbit, and anti-mouse were used. Bands were detected using Alliance 4.7 UVITEC (Cambridge, UK) and analyzed by ImageJ software. The relative densities of the immunoreactive bands were normalized to anti-Actin or anti-laminin using ImageJ software. Values were given as RU.

[3] = Caco-2 permeability assay (Papp, Ap-Bl); format: in vitro ADME; conditions: human, Caco-2, apical to basolateral
Experimental: Papp is the apparent permeability of a compound across a membrane. For drug transport studies, cells were seeded at a density of 3 × 10^5 cells/cm^2 on permeable support with 0.4 µm Transparent PET Membrane in complete medium, cultured and treated as described above.
Drug transport across Caco-2 monolayers was studied in the Ap–Bl direction, fresh drug and provided to the apical side (donor compartment), and the fresh vehicle was provided to the basolateral side (receiver compartment). For each solution, aliquots of 500 μL were collected immediately after the addition of compounds to the cells (the “time zero”), and after appropriate dilution, an HPLC analysis was performed. At the end of the experiment, after 120 min of incubation, 500 μL of the donor chamber solution was diluted and an HPLC analysis was performed.

[4] = system: IL-8; conditions: Caco-2, EtOH exposure 6% for 24 h; control 82.4 ± 0.44 pg/mL
[5] = system: TNF-α; conditions: Caco-2, EtOH exposure 6% for 24 h; control 10.8 ± 1.3 pg/mL
[6] = system: COX-1; conditions: human blood, cited from earlier work
[7] = physchem; conditions: water
Experimental: (§1) The major physicochemical properties of the drugs were determined using the SiriusT3 apparatus (Sirius Analytical Instruments Ltd., East Sussex, UK) equipped with an Ag/AgCl double junction reference pH electrode, a Sirius D-PAS spectrometer, and a turbidity sensing device. The pH electrode was calibrated titrimetrically in the pH range 1.8–12.2 as previously described. The pKas were defined by the potentiometric method by pH-metric titration. The powder (around 0.5 mg) was diluted in 1.5 mL of ISA water and the titration was analyzed in triplicate in the pH range 2.0–12.0.

[8] = system: Caco-2 cells; experiment: Transepithelial electrical resistance (TEER), EtOH-stressed Caco-2; format: cell-based, human; conditions: Caco-2 20 DIV, 6% EtOH 24 h then 0.25, 0.5, 1 mM for 72 h
[9] = Log P / LogD7.4 by pH-metric titration in octanol (SiriusT3); format: physicochemical; conditions: for logD: pH 7.4; for logP: SiriusT3, octanol
Experimental: as §1

[10] = system: Caco-2 cells; conditions: effect on EtOH-induced increase; Caco-2, 1 mM for 72 h
Experimental: OxyBlot protein oxidation detection kits (S7150, Millipore Company, Burlington, MA, USA) were used according to the manufacturer’s instructions. Briefly, cells were plated (seeding density 3 × 10^5 cells/cm^2) in a complete medium in a T75 flask and cultured for 20 days post-confluence. After 20 days, cells were exposed for 24 h to EtOH (6%) and for 72 h to NSAIDs (1 mM). OxyBlot assay was then performed as previously reported.

[11] = system: 4-HNE; experiment: 4-HNE levels by WB, Caco-2; format: cell-based, human; conditions: Caco-2, 6% EtOH 24 h then 1 mM for 72 h
[12] = system: Caco-2 cells; experiment: Morphological analysis of the intestinal barrier (ZO-1 immunofluorescence, phalloidin staining); format: cell-based, human; conditions: Caco-2, 6% EtOH 24 h then 1 mM for 72 h
Experimental: Cells were then fixed with 3.7% paraformaldehyde (Sigma, USA) in PBS for 15 min at room temperature and then permeabilized with 0.1% Triton X-100 (Sigma, USA) in PBS for 5 min. After further washes with PBS, phalloidin 1000X (ab176753, Abcam, UK) was diluted to 1X in 1% BSA in PBS, and the cells were incubated for 90 min at room temperature (according to the manufacturer’s instructions). Finally, coverslips were mounted on microscope slides with Vectashield Mounting Medium H2000 with DAPI and cells were observed using a Leica SP5 confocal microscope. For each condition, n = 3, 5 fields/slide were analyzed. A representative picture is shown.
Cells were then treated with 6% EtOH (24 h) and then with 1 mM NSAIDs (72 h). Cells were fixed in 3.7% paraformaldehyde in PBS for 15 min at room temperature, rinsed with PBS, and permeabilized with 0.1% Triton X-100 in PBS for 5 min. After further washes with PBS, cells were incubated for 30 min with BSA 4% in PBS and then incubated overnight at 4 °C with the primary antibody zonulin-1 (ZO-1) (33-910, Thermo Scientific, MA, USA rabbit anti-human, dilution 1:100). […] Finally, coverslips were mounted on microscope slides with Vectashield Mounting Medium with DAPI and cells were observed using a Leica SP5 confocal microscope.

[13] = system: Glutathione-S-transferase (GST); conditions: effect on EtOH-induced decrease; Caco-2, 1 mM for 72 h
[14] = system: IKBα/4-HNE adducts; experiment: Immunoprecipitation for IKBα, IKBα/4-HNE adducts, Caco-2; format: cell-based, human; conditions: Caco-2, EtOH then 1 mM for 72 h
Experimental: The columns were incubated overnight at 4 °C. […] Values were given as RU.

[15] = system: COX-2; conditions: human blood, cited from earlier work
[16] = system: IKBα; experiment: IKBα protein levels by western blotting, Caco-2; format: cell-based, human; conditions: Caco-2, 6% EtOH 24 h then 1 mM for 72 h
[17] = system: Caco-2 cells; experiment: DCFDA cellular ROS assay, Caco-2; format: cell-based, human; conditions: compared to EtOH challenge alone; Caco-2, 1 mM for 72 h

SMILES	NFkB translocation [2]	Papp at 120 min ([3]; Caco-2, K) [×10⁻⁶ cm/s]	Papp at 120 min ([3]; Caco-2, KLS) [×10⁻⁶ cm/s]	IC50 ([6]; ref 23) [µM]	IC50 ([6]; ref 24) [µM]	logP ([9]; octanol/ISA water)	intestinal barrier integrity (ZO-1 and phalloidin staining) [12]	IKBα/4-HNE adduct formation [14]	also measured
C[C@@H](C(=O)O)c1cccc(C(=O)c2ccccc2)c1 [R enantiomer, R-Ketoprofen]	inhibited NFkB translocation to the same extent as KLS	0.579 ± 0.052	1.19 ± 0.044	–	–	–	–	–	potency as a COX inhibitor [1]: several logs less potent than the S enantiomer
CCO [EtOH, Ethanol]	–	–	–	–	–	–	–	–	Secreted IL-8 levels [4]: 283.9 ± 4.1 pg/mL; Secreted TNF-α levels [5]: 20.9 ± 0.7 pg/mL
CC(C)Cc1ccc(C(C)C(=O)O)cc1 (stereo not drawn) [Ibuprofen]	–	–	–	[…]	[…]	3.91 ± 0.01	–	–	solubility [7]: 49 µg/mL (≈ 238 µM); TEER [8]: partial but significant protective activity; logD ([9]; octanol/ISA water): 0.96
C[C@H](C(=O)O)c1cccc(C(=O)c2ccccc2)c1 [S enantiomer, (S)-ketoprofen]	not	0.576 ± 0.031	1.19 ± 0.026	–	–	–	–	–	–
NCCCC[C@H](N)C(=O)O [Lys, L-lysine]	–	–	–	–	–	–	did not show the ability to protect Caco-2 cells	not	levels of oxidized proteins (OxyBlot) [10]: did not exhibit direct antioxidant effects; 4-HNE levels [11]: not; GST activity [13]: not observed
CC(C(=O)O)c1cccc(C(=O)c2ccccc2)c1 (stereo not drawn) [Ketoprofen, ketoprofen]	–	–	–	0.047	0.11	3.05 ± 0.01	did not show the ability to protect Caco-2 cells	reduced the formation of the adducts	IC50 ([15]; ref 23): 2.9 µM; IC50 ([15]; ref 24): 0.88 µM; IKBα protein levels [16]: counteracted the EtOH-induced IKBα decrease; DCFDA fluorescence intensity (cellular ROS) [17]: more substantial; logD [9]: 0.12
